Reference: patent US20060205772A1, “Amide derivatives and their use as inhibitors of 11-beta-hydroxysteroid dehydrogenase type I” (priority 2003, published 2006)

Key:
[1] = target: T1, human recombinant 11β-HSD1 (Homo sapiens, UniProt P28845); experiment: in vitro inhibition of human recombinant 11β-HSD1 (Pichia pastoris microsomes, [3H]cortisone to [3H]cortisol); assay type: biochemical; details: recombinant human 11β-HSD1 microsomes, 500 nM cortisone mixture, NADPH, 90 min at 37° C.
T1 construct: made in house; host or cells: Pichia pastoris (microsomal fraction)
Description: The in vitro inhibition of human recombinant 11β-HSD1 is determined as follows:
Recombinant human 11β-HSD1 is expressed in yeast Pichia pastoris. Cultures are grown at 30° C. for 3 days in the presence of methanol to induce enzyme expression. The microsomal fraction overexpressing 11β-HSD1 is prepared from the cell homogenate and used as the enzyme source for primary screening. A test compound at the desired concentration is preincubated for 10 min at RT with 3 μg of the microsomal protein in 50 mM sodium phosphate, pH 7.5, in a total volume of 80 μL. The enzyme reaction is initiated by adding 20 μL of a mixture containing 5 mM NADPH, 500 nM cortisone, and 80,000 dpm of [^3H]cortisone in the same buffer and is terminated by ethyl acetate after incubation for 90 min at 37° C. The production of [^3H]cortisol is quantitated upon separation from [^3H]cortisone by a C18 column on HPLC equipped with a radioactivity detector. Glycerrhetinic acid, a known inhibitor of 11β-HSD1, is used as a standard.

human 11β-HSD2 = target: T2, human 11β-HSD2 (Homo sapiens, UniProt P80365); experiment: in vitro inhibition of human 11β-HSD2 (SW-620 cell lysates, [3H]cortisol to [3H]cortisone); assay type: biochemical
T2 construct: using lysates of SW-620 cells as the enzyme source; host or cells: SW-620 human colon carcinoma cells (lysate)
T2 sequence (P80365 1-405): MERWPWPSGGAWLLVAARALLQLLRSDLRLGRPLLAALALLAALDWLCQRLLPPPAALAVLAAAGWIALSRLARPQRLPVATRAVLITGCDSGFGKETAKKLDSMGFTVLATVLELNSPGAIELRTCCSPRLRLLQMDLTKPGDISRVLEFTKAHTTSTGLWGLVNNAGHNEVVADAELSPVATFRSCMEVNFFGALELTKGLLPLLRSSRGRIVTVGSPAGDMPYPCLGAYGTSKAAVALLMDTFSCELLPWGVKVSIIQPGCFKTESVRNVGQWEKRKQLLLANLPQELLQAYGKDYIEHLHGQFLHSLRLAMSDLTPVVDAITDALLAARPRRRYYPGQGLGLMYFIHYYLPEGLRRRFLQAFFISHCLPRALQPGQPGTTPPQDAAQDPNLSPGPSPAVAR
Description: The in vitro inhibition of human 11β-HSD2 is determined as follows:
The SW-620 human colon carcinoma cell line is obtained from the American Type Culture Collection (ATCC). Cells are plated at a density of 8-10×10^4 cells/cm^2 in DMEM/F12 containing 5% BCS, 100 U/mL penicillin, 100 μg/mL streptomycin and […] amphotericin B. Cultures are grown to 80-90% confluence in a humidified, atmosphere of 5% CO2 at 37° C. The medium is changed to serum-free, phenol red-free DMEM/F12 at 24 h before harvesting the cells.
After 24 h in serum-free medium, cultured SW-620 cells are rinsed and scraped in Kreb's-Ringer buffer, pH 7.4, containing 1 mM EDTA, 2 μg/mL aprotinin, 10 μM leupeptin and 1 μM pepstatin. After sonication (30 seconds) and low speed centrifugation (2,000 rpm, 5 min) to remove cellular debris, the supernatant is collected and used to determine enzyme activity and protein concentration (BCA, Pierce, Rockford, Ill.).
Dehydrogenase activity is quantified by measuring the conversion of [^3H]cortisol to [^3H]cortisone using lysates of SW-620 cells as the enzyme source. The assay is performed in tubes containing Kreb's-Ringer buffer pH 7.4, with 0.20 mM NAD and 200,000 dpm of [^3H]cortisol and a test compound in a total volume of 1 mL. The tubes are preincubated for 10 min at 37° C. before adding 200 μg of cell lysates to start the reaction. After incubation for 1 h at 37° C. in a shaking water bath, the mixture is extracted with 2 volumes of ethyl acetate and centrifuged for 10 min at 2,000 rpm. The organic layer is collected, dried under vacuum and resuspended in methanol. The dissolved residues are quantitatively transferred to thin layer plates and developed in chloroform-methanol (90:10). Unlabeled cortisol and cortisone were used as reference markers. The TLC plates are scanned on a Bioscan radioimaging detector (Bioscan, Washington, D.C.), and the fractional conversion of cortisol to cortisone is calculated. Enzyme activity is expressed as pmoles of product formed per mg protein per hour. Carbenoxolone and glycyrrhetinic acid are used as standards.

cellular 11β-HSD1 = target: T3, cellular 11β-HSD1 (Rattus norvegicus, UniProt P16232); experiment: inhibition of cellular 11β-HSD1 activity in primary rat hepatocytes; assay type: cell-based; details: 2 h incubation
T3 construct: Enzyme activity is measured in the medium of primary cultures of rat hepatocytes 48 h after plating the cells; endogenous in cells; host or cells: primary hepatocytes of male Sprague-Dawley rats
Description: The inhibition of cellular 11β-HSD1 activity in primary rat hepatocytes is determined as follows:
Male Sprague-Dawley rats weighing 180-200 g are anesthetized with sodium pentobarbital (65 mg/kg). The liver is perfused in situ with calcium-free Earl's Balanced Salt Solution (EBSS) followed by EBSS containing 100-150 U/mL of collagenase, 1.8 mM CaCl2 and 10 mM HEPES, pH 7.4. The perfused liver is removed and aseptically placed in warm William's Medium E containing 10% BCS. After decapsulation, the organ is transferred to fresh medium and gently shaken to facilitate tissue dissociation and cell release. Hepatocytes are separated from nonparenchymal and dead cells by repeated low speed centrifugation. Cell viability is determined by trypan blue exclusion.
Hepatocytes are plated on collagen coated dishes at a density of 1×10^5 cells/cm^2 in William's medium E containing 10% BCS, 100 U/mL penicillin, 100 μg/mL streptomycin, 0.25 μg/mL amphotericin B, 2 mM L-glutamine, 10 mM HEPES, 100 nM insulin and 1 nM dexamethasone. After 1 h the medium is changed to serum-free William's medium E supplemented as described above. Thereafter, the medium is replaced every 24 h. The cultures are maintained in a humidified atmosphere of 5% CO2 at 37° C.
Enzyme activity is measured in the medium of primary cultures of rat hepatocytes 48 h after plating the cells. The medium is aspirated and replaced with serum-free William's medium E containing 2 nM [^3H]11-dehydrocorticosterone and a test compound and is incubated for 2 h. An aliquot of culture medium is removed at the end of the incubation and the mixture is extracted with 2 volumes of ethyl acetate, dried under vacuum and resuspended in methanol. The dissolved residues are quantitatively transferred to thin layer plates and developed in chloroform-methanol (90:10). The TLC plates are scanned on a Bioscan imaging detector and the fractional conversion of 11-dehydrocorticosterone to corticosterone is calculated. The cell layer is rinsed with cold phosphate-buffered saline and dissolved in 0.1 N NaOH/5% SDS for the determination of cellular protein (BCA, Pierce, Rockford, Ill.). Enzyme activity is expressed as pmoles of product formed per mg protein per hour.

[2] = system: corticosterone production in adrenalectomized (ADX) mice; experiment: inhibition of corticosterone production in adrenalectomized (ADX) mice; assay type: in vivo; details: Mus musculus, po; ADX CD1 mice, orally 25 mg/kg each at 2 and 4 h before sacrifice; liver corticosterone
Description: Inhibition of corticosterone production in adrenalectomized (ADX) mice is determined as follows:
Bilateral adrenalectomy is performed in male mice of the CD1 strain (6 to 8 weeks of age, 25-30 g body weight) through a lumbar laparotomy. After 10 days the animals are fasted for 24 h. Compounds are administered orally at 25 mg/kg each at 2 and 4 h before sacrifice. A second group of animals receives carbenoxolone at the same dose, and a third group receives the vehicle (cornstarch). Homogenized liver samples are used to measure corticosterone concentration which is determined by radioimmunoassay and is expressed as pg of corticosterone per mg of liver protein.

T3 sequence (P16232 whole entry): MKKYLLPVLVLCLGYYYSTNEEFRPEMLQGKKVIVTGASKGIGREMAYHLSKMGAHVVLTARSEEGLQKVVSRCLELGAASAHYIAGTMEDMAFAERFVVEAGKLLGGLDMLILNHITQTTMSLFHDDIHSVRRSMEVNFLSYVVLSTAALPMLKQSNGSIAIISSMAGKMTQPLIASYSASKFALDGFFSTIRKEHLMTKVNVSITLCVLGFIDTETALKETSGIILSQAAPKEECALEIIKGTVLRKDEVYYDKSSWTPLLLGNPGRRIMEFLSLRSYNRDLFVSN
T1 sequence (P28845 whole entry): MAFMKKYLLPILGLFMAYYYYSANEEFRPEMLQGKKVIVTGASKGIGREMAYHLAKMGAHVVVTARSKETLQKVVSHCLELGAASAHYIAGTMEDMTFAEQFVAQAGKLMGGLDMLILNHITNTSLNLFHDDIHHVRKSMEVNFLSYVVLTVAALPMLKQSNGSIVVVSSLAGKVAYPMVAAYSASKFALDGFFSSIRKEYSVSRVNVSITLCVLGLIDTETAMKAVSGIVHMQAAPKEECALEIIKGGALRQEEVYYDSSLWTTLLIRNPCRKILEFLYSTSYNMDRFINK

Compound	melting point	IC50 [1]	inhibition at 10 µM (human 11β-HSD2)	inhibition at 1 µM (cellular 11β-HSD1)	change in vivo at 25 mg/kg [2]
Cc1ccc(NC(=O)c2ccc(C(=O)N3CCC[C@H]4CCCC[C@@H]43)cc2)cc1 (racemic) [Example 22, 4-[(4aS*,8aR*)-Octahydro-1(2H)-quinoline-1-carbonyl]-N-p-tolylbenzamide]	199 to 203 °C				
O=C(Nc1ccc(C(=O)N2CCC[C@H]3CCCC[C@@H]32)cn1)c1ccc(Cl)cc1Cl (racemic) [Example 25, 2,4-Dichloro-N-{5-[(4aS*,8aR*)-octahydro-1(2H)-quinoline-1-carbonyl]-pyridin-2-yl}-benzamide]	202 to 203 °C				
O=C(Nc1ccc(C(=O)N2CCC[C@H]3CCCC[C@@H]32)cn1)c1ccc(F)cc1 (racemic) [Example 26, 4-Fluoro-N-{5-[(4aS*,8aR*)-octahydro-1(2H)-quinoline-1-carbonyl]-pyridin-2-yl}-benzamide]	144 to 145 °C				
COc1ccc(C(=O)Nc2ccc(C(=O)N3CCC[C@H]4CCCC[C@@H]43)c3ccccc23)cc1OC (racemic) [Example 27, 3,4-Dimethoxy-N-{4-[(4aS*,8aR*)-octahydro-1(2H)-quinoline-1-carbonyl]-naphthalen-1-yl}-benzamide]	251 to 260 °C				
O=C(Nc1cccc(-c2ccc(C(=O)N3CCC[C@H]4CCCC[C@@H]43)o2)c1)c1ccccc1 (racemic) [Example 34, N-{3-[5-((4aS*,8aR*)-Octahydro-1(2H)-quinoline-1-carbonyl)-furan-2-yl]-phenyl}-benzamide]	62 to 64 °C				
CC1=C(C(=O)N2CCC[C@@H]3CCCC[C@H]32)Cc2ccccc21 (racemic) [Example 36, (3-Methyl-H-inden-2-yl)-(4aS*,8aR*)-octahydro-1(2H)-quinolin-1-yl-methanone]	98 to 100 °C				
CC1(C)CC[C@H]2[C@@H](CCCN2C(=O)c2ccc(NC(=O)c3ccc(Cl)cc3Cl)cc2)C1 (racemic) [Example 44, 2,4-Dichloro-N-[4-((4aS*,8aS*)-6,6-dimethyl-octahydro-1(2H)-quinoline-1-carbonyl)-phenyl]-benzamide]	220 to 221 °C				
Cn1c(C(=O)N2CCC[C@@H]3CCCC[C@H]32)cc2ccccc21 (relative stereo) [Example 38, (1-Methyl-1H-indol-2-yl)-(4aS*,8aR*)-octahydro-1(2H)-quinolin-1-yl-methanone]		180 nM	10%	49%	-62%
O=C(Nc1ccc(C(=O)N2CCC[C@H]3CC(O)CC[C@@H]32)cc1)c1ccc(Cl)cc1Cl (relative stereo) [Example 41, 2,4-Dichloro-N-[4-((4aS*,6S*,8aS*)-6-hydroxy-octahydro-1(2H)-quinoline-1-carbonyl)-phenyl]-benzamide]	183 to 184 °C				
CN(CC1CCCCC1)C(=O)c1ccc(NC(=O)c2ccc(F)cc2)cc1 [Example 1, N-Cyclohexylmethyl-4-fluorobenzoylamino-N-methylbenzamide]	158 to 160 °C				
CN(CC1CCCCC1)C(=O)c1ccc(NC(=O)c2ccc(F)cc2)cc1Cl [Example 3-11]		1000 nM	26%	80%	-69%
CC1=C(C(=O)N(C)CC23CC4CC(CC(C4)C2)C3)Cc2ccccc21 [Example 8-6]		6.5 nM	11%	54%	-57%
C[C@H]1CCCC[C@@H]1N(C)C(=O)c1ccc(NC(=O)c2ccc(Cl)cc2Cl)cc1 [Example 8-8]	80 to 90 °C				
CN(C(=O)c1ccc(NC(=O)c2ccc(Cl)cc2Cl)cc1)C1CC2CCC1C2 (stereo not shown) [Example 8-9]	85 to 100 °C				
O=C(Nc1ccc(C(=O)N2CCC[C@@H]3CCCC[C@@H]32)cc1)c1ccc(F)cc1 [Example 11-13]		563 nM	2%	90%	-73%
COc1cccc(NC(=O)Nc2ccc(C(=O)N3CCC[C@H]4CCCC[C@H]43)c(OC)c2)c1 [Example 13-4]		42 nM	44%	53%	-70%
COc1ccccc1CNC(=O)c1ccc(C(=O)N2CCC[C@@H]3CCCC[C@@H]32)cc1 [Example 23-47]		2120 nM	49%	71%	-61%
O=C(NCc1ccc(F)cc1)N1CCc2cc(C(=O)N3CCC[C@H]4CCCC[C@H]43)ccc21 [Example 33-21]		262 nM	45%	84%	-71%
O=C(c1ccc(-c2ccccc2[N+](=O)[O-])o1)N1CCC[C@@H]2CCCC[C@@H]21 [Example 35-15]		7.7 nM	34%	76%	-67%
